# How the values were obtained:
# [1] = Dissociation constant, pKa of the compound; type: physicochemical
# Carbonic anhydrase 2 [2] = biological target: T1, Carbonic anhydrase 2 (Homo sapiens, UniProt P00918)
# Description: Inhibition of human carbonic anhydrase 2 by 4-NPA hydrolysis assay
# Carbonic anhydrase 2 [3] = biological target: T1, Carbonic anhydrase 2; remark: listed apart in the source
# Description: Binding affinity to human carbonic anhydrase 2 in presence of 10 mM HEPES and 100 uM Na2SO4 at pH 7.5 by ThermoFluor method
# Carbonic anhydrase 2 [4] = biological target: T1, Carbonic anhydrase 2; remark: listed apart in the source
# Description: Binding affinity to human carbonic anhydrase 2 in presence of 10 mM HEPES without Na+ at pH 7.5 by ThermoFluor method
# Carbonic anhydrase 2 [5] = biological target: T1, Carbonic anhydrase 2; remark: listed apart in the source
# Description: Binding affinity to human carbonic anhydrase 2 in presence of 10 mM PIPES and 100 uM Na2SO4 at pH 7.0 by ThermoFluor method
# Carbonic anhydrase 2 [6] = biological target: T1, Carbonic anhydrase 2; remark: listed apart in the source
# Description: Binding affinity to human carbonic anhydrase 2 in presence of 10 mM PIPES and 200 uM NaCl at pH 7.0 by ThermoFluor method
# Carbonic anhydrase 2 [7] = biological target: T1, Carbonic anhydrase 2; remark: listed apart in the source
# Description: Binding affinity to human carbonic anhydrase 2 in presence of 10 mM PIPES without Na+ at pH 7.0 by ThermoFluor method
Ki (Carbonic anhydrase 2 [2]),Kd (Carbonic anhydrase 2 [3]),Kd (Carbonic anhydrase 2 [4]),Kd (Carbonic anhydrase 2 [5]),Kd (Carbonic anhydrase 2 [6]),Kd (Carbonic anhydrase 2 [7]),Compound,pKa [1]
,,,,,,CC1(C)O[C@@H]2[C@@H](CO[C@@]3(COS(N)(=O)=O)OC(C)(C)O[C@@H]23)O1 [TOPIRAMATE],8.7
,,,,,,CC1(C)O[C@@H]2[C@@H](CO[C@@]3(CNS(N)(=O)=O)OC(C)(C)O[C@@H]23)O1,10.7
300 µM,> 57 µM,> 57 µM,> 57 µM,> 57 µM,> 57 µM,CC1(C)O[C@H]2[C@@H]3OCO[C@@H]3CO[C@@]2(CNS(N)(=O)=O)O1,
